Source: patent publication US12102705B2, “Peptides having inhibitory activity on muscarinic receptor M3” (AZIENDE CHIMICHE RIUNITE ANGELINI FRANCESCO—A.C.R.A.F. …, priority 2018, dated 2024)
Peptide text beside a SMILES is read from it. * marks the point of attachment. Palmitoyl = CCCCCCCCCCCCCCCC(=O)*

Experiments:
[1] = target: T1, human muscarinic receptor M3 (Homo sapiens, UniProt P20309); assay: Dose-response inhibitory effect on M3 activity (IC50); format: cell-based
T1 construct: expressed in transfected cells; cultured in Ham's F-12 medium
Description: (§1) Epithelial stable cell line constitutively expressing human muscarinic receptor M3 was used to assess peptides activity. Cells were seeded in 96-well plates at 50% cell confluence in 100 μL of complete Ham's F-12 medium. After 24 hours, medium was removed and cells were incubated with 90 μL/well of a solution of the peptides of the invention at 100, 50 or 10 μM or DMSO as vehicle. Peptides were dissolved in Fluo-4 NW (Invitrogen) fluorescent calcium probe assay buffer containing Probenecid, following manufacturer's instructions for 50 min at 37° C. in a CO2 incubator. Afterwards, M3 activity was determined by reading the fluorescence in a FLUOstar Galaxy reader (BMG LabTechnologies) using 485 nm filter for excitation and 520 nm for emission, recording signal before and after M3 activation with 10 nM acetylcholine. Fluorescence measurements were normalized to acetylcholine maximum fluorescence signal in vehicle treated cells. Atropine (100 nM) was used as positive control for inhibition. Inhibition values of M3 activity were calculated as percentages by considering maximum fluorescence corresponding to acetylcholine-M3 activation and minimum as non-stimulated cells. Table D details inhibition values of M3 activity inhibition obtained for the peptides of invention.
Characterization of Seq. ID No. 1, 3-8 peptides efficiency was obtained by calculating half maximal inhibitory concentration (IC50). For this purpose, experimental procedure regarding cell culture and fluorescent calcium probe assay was followed as described on Example 2. Peptides were assessed at concentrations between 0.1 and 100 μM and incubated for 1 hour together with Fluo-4 NW probe. Afterwards, M3 activity was determined by reading the fluorescence in a FLUOstar Galaxy reader (BMG LabTechnologies) using 485 nm filter for excitation and 520 nm for emission, recording signal before and after M3 activation with acetylcholine. Fluorescence measurements were standardized with regard to the maximum fluorescence signal detected with acetylcholine stimulation in vehicle treated cells. Inhibition values of M3 activity were calculated as percentages by considering maximum fluorescence corresponding to acetylcholine-M3 activation and minimum as non-stimulated cells. Percentage inhibition data was fitted to a sigmoidal curve to obtain IC50. Table F details inhibition values for IC50

[2] = target: T1, human muscarinic receptor M3; assay: Inhibition of M3-acetylcholine activation, Fluo-4 NW calcium fluorescence; format: cell-based; details: 50 min, 50 min incubation, 10 nM acetylcholine
Description: as §1

[3] = system: sweating induced by pilocarpine; assay: Antiperspirant effect on chronic administration, pilocarpine-induced mouse model of sweat secretion; format: in vivo, C57BL6/Rcc male mice; details: during 4 weeks treatment, 10 and 100 μg/paw
Description: This example evaluated chronic effects of peptide of invention Seq. ID No. 2, palmitoylated form, in an in vivo sweating model. This model was established using pilocarpine, a non-selective agonist of muscarinic receptors, in 11-weeks old C57BL6/Rcc male mice. Test compound was locally administered three times per week for 4 weeks (Treatment). Sweat was induced by intraplantar (i.pl) injection of pilocarpine (3 μg/paw) in the right hind paw (Sweating) on weeks 1, 2 and 4 according to the table H.
Test compound is the peptide of the invention having the following sequence (Sequence ID No. 2): • Palm-WMRLK-NH2
Test compound was injected i.pl. on the right hind paw (1, 10 and 100 μg in). Vehicle injected was saline solution.
(§2) Sweating was monitored through amylase activity detection on skin surface using iodine/starch reaction. Dark sweating drops were quantified after 5 minutes induction counting number of drops per paw in each condition. Sample n=5-6 individuals per group. Data are expressed as mean±standard error of the mean (SEM). Raw data was normalized as percentage respect to non-injected stimulated individuals (Control, 100%). Statistical analysis was one-way ANOVA followed by Dunnett's post-hoc multiple comparison test comparing each condition with the corresponding control group, ****p<0.0001 ***p<0.001 **p<0.01, *p<0.05

[4] = system: sweating induced by pilocarpine; assay: Antiperspirant effect on acute administration, pilocarpine-induced mouse model of sweat secretion; format: in vivo, C57BL6/Rcc male mice; details: at 10, 30 and 100 μg
Description: This example evaluated acute effects of the peptide of invention Seq. ID No 2, pamitoylated form, in an in vivo sweating model induced by pilocarpine. This model was established using pilocarpine, a non-selective agonist of muscarinic receptors, in 11-weeks old C57BL6/Rcc male mice.
Test compound is the peptide of the invention having the following sequence (Sequence ID No. 2): • Palm-WMMRLK-NH2
Test compound was injected i.pl. on the right hind paw (10, 30 and 100 μg) 30 min before sweating stimulation. Vehicle was saline solution.
as §2, with “condition.” for “condition. Sample n=5-6 individuals per group.”, “100%) and saline-injected non-stimulated individuals (Vehicle, 0%).” for “100%).”

[5] = target: T1, human muscarinic receptor M3; assay: Time-dependent inhibition of M3 activity, Fluo-4 NW calcium fluorescence; format: cell-based; details: peptide 50 μM, read-out: % Inhibition hM3 receptor activity
Description: Peptides of invention were designed to target the intracellular region of M3. Therefore, minimum time required to detect inhibitory effect on M3 activity was evaluated. For this purpose, inhibitory effect of peptides Seq. […] Epithelial stable cell line constitutively expressing human muscarinic receptor M3 was used to assess peptides activity. Cells were seeded in 96-well plates at 50% cell confluence in 100 μL of complete Ham's F-12 medium. After 24 hours, medium was removed and cells were incubated with 90 μL/well of Fluo-4 NW (Invitrogen) fluorescent calcium probe assay buffer containing probenecid, following manufacturer's instructions at 37° C. in a CO2 incubator. Peptides (50 μM), vehicle and atropine were incubated either with the probe (1 hour pre-incubation) or during fluorescence reading (direct effect). Afterwards, M3 activity was recorded for 20 cycles and direct effect peptides were added on cycle 3 after baseline assessment. Acetylcholine was added on cycle 13. Therefore, direct effect of peptides was monitored for 25 minutes. Inhibition values of M3 activity were calculated as percentages by considering maximum fluorescence corresponding to vehicle or non-treated cells acetylcholine-M3 activation and minimum as non-stimulated cells. Table E details inhibition values of M3 activity inhibition obtained for the peptides of invention.

T1 sequence (P20309 whole entry): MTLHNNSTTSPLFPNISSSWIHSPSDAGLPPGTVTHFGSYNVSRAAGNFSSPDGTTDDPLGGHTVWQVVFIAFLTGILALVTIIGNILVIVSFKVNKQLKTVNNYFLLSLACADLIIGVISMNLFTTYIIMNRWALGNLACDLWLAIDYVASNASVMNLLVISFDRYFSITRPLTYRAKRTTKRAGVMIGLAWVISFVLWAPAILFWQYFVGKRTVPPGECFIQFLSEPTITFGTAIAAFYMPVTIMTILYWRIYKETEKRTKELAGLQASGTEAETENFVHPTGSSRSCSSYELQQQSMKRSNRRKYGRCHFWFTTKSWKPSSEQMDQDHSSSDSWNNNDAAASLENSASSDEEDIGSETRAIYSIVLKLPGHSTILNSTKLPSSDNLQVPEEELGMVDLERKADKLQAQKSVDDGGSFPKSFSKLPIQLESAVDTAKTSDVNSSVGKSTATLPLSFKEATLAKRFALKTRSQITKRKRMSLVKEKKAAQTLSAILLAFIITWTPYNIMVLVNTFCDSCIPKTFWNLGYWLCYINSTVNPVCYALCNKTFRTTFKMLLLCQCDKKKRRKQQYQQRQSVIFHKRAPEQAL

Molecule CCCCCCCCCCCCCCCC(=O)N[C@@H](Cc1c[nH]c2ccccc12)C(=O)N[C@@H](CCSC)C(=O)N[C@@H](CCCNC(=N)N)C(=O)N[C@@H](CC(C)C)C(=O)N[C@@H](CCCCN)C(N)=O [Seq. ID No. 2 Palmitoyl, Palm-WMRLK-NH2] (Palmitoyl-WMRLK-NH2) has an IC50 [1] of 7.2 µM, an inhibition at 10 µM ([2]; peptide 10 μM) of 62.5% and an inhibition at 50 µM ([2]; peptide 50 μM) of 85.4%. For the same molecule, the inhibition at 100 µM ([2]; peptide 100 μM) was 88.6%, the sweating inhibition [3] was “significant sweating inhibition” and the reduction of sweating [4] was “significantly reduced sweating”. For the same molecule, the inhibition at 50 µM ([5]; 25 min, 25 minutes (direct effect)) was 25.5% and the inhibition at 50 µM ([5]; 60 minutes (1 hour pre-incubation)) was 81%.
